Measurements as given in ChEMBL document CHEMBL4265965, “Dichloroacetophenones targeting at pyruvate dehydrogenase kinase 1 with improved selectivity and antiproliferative activity: Synthesis and structure-activity relationships” (Bioorg Med Chem Lett, 2018).
Calls of active or inactive are those of the source. No cut-off for these calls is given here.

Experiments:
NCI-H1975 [1] = assay: Antiproliferative activity against human NCI-H1975 cells assessed as inhibition of cell proliferation at 12 uM after 72 hrs by MTT assay relative to control; format: functional; conditions: NCI-H1975, 72 h
NCI-H1650 [2] = assay: Antiproliferative activity against human NCI-H1650 cells assessed as inhibition of cell proliferation at 12 uM after 72 hrs by MTT assay relative to control; format: functional; conditions: for inhibition at 12 µM: NCI-H1650, 72 h
A549 [3] = assay: Antiproliferative activity against human A549 cells assessed as inhibition of cell proliferation at 6 uM after 72 hrs by MTT assay relative to control; format: functional; conditions: for inhibition at 6 µM: A549, 72 h
A549 [4] = assay: Antiproliferative activity against human A549 cells assessed as inhibition of cell proliferation at 2 uM after 72 hrs by MTT assay relative to control; format: functional; conditions: for inhibition at 2 µM: A549, 72 h
A549 [5] = assay: Antiproliferative activity against human A549 cells assessed as inhibition of cell proliferation at 12 uM after 72 hrs by MTT assay relative to control; format: functional; conditions: A549, 72 h
NCI-H1975 [6] = assay: Antiproliferative activity against human NCI-H1975 cells assessed as inhibition of cell proliferation at 2 uM after 72 hrs by MTT assay relative to control; format: functional; conditions: for inhibition at 2 µM: NCI-H1975, 72 h
NCI-H1650 [7] = assay: Antiproliferative activity against human NCI-H1650 cells assessed as inhibition of cell proliferation at 6 uM after 72 hrs by MTT assay relative to control; format: functional; conditions: for inhibition at 6 µM: NCI-H1650, 72 h
NCI-H1650 [8] = assay: Antiproliferative activity against human NCI-H1650 cells assessed as inhibition of cell proliferation at 2 uM after 72 hrs by MTT assay relative to control; format: functional; conditions: for inhibition at 2 µM: NCI-H1650, 72 h
NCI-H1975 [9] = assay: Antiproliferative activity against human NCI-H1975 cells assessed as inhibition of cell proliferation at 6 uM after 72 hrs by MTT assay relative to control; format: functional; conditions: for inhibition at 6 µM: NCI-H1975, 72 h
[10] = target: [Pyruvate dehydrogenase (acetyl-transferring)] kinase isozyme 1, mitochondrial (Homo sapiens, UniProt Q15118); assay: Inhibition of recombinant human N-terminal His6/Sumo-tagged PDK1 (29 to 436 residues) expressed in Escherichia coli BL21 at 1 uM by kinase-glo luminescence assay relative to control

Row | Structure (SMILES) | inhibition at 12 µM (NCI-H1975 [1]) [%] | inhibition at 12 µM (NCI-H1650 [2]) [%] | inhibition at 6 µM (A549 [3]) [%] | inhibition at 2 µM (A549 [4]) [%] | inhibition at 12 µM (A549 [5]) [%] | inhibition at 2 µM (NCI-H1975 [6]) [%] | inhibition at 6 µM (NCI-H1650 [7]) [%] | inhibition at 2 µM (NCI-H1650 [8]) [%] | inhibition at 6 µM (NCI-H1975 [9]) [%] | inhibition (NCI-H1650 [2]) | inhibition (A549 [4]) | inhibition [10] | inhibition (NCI-H1650 [7]) | inhibition (NCI-H1650 [8]) | inhibition (NCI-H1975 [6]) | inhibition (A549 [3]) | inhibition (NCI-H1975 [9])
1 | O=C(c1ccc(Cl)c(C(F)(F)F)c1)C(Cl)Cl | 98.4 | 100 | 79.5 | 27.6 | 94.5 | 70.1 | 95.3 | 55.7 | 97.6 | – | – | – | – | – | – | – | –
2 | O=C(c1ccccc1F)C(Cl)Cl | 48.6 | – | 10.1 | – | 13.6 | 4.4 | – | – | 12.8 | inactive | inactive | inactive | inactive | inactive | – | – | –
3 | O=C(c1ccc(C(F)(F)F)cc1)C(Cl)Cl | 98.2 | 75.5 | 37.1 | 18.6 | 85.9 | 47.8 | 49.7 | 25.8 | 91.6 | – | – | – | – | – | – | – | –
4 | COc1ccc(C(=O)C(Cl)Cl)cc1 | 98.3 | 84.9 | 50.1 | 7.5 | 86.1 | 35.1 | 56.8 | 32.5 | 95.8 | – | – | 19.7 to 67.9% | – | – | – | – | –
5 | O=C(c1cccc(I)c1)C(Cl)Cl | 99.1 | 98.7 | 67 | 20.4 | 89.8 | 64 | 82 | 46.1 | 97.5 | – | – | – | – | – | – | – | –
6 | CCCCc1ccc(C(=O)C(Cl)Cl)cc1[N+](=O)[O-] | 100 | 97.5 | 12 | – | 56.9 | 39.8 | 57.2 | 22.3 | 65.2 | – | inactive | inactive | – | – | – | – | –
7 | O=C(c1ccc(F)cc1)C(Cl)Cl | 98.3 | 95.5 | 15.5 | 4.7 | 48.1 | 15.4 | 62.9 | 26.5 | 92.1 | – | – | – | – | – | – | – | –
8 | Cc1ccc(C(=O)C(Cl)Cl)cc1[N+](=O)[O-] | 99.7 | 94.6 | 67.8 | 12.6 | 89.5 | 15.8 | 69.8 | 15.4 | 89.5 | – | – | 50.5% | – | – | – | – | –
9 | CCOc1ccc(C(=O)C(Cl)Cl)cc1 | 98.6 | 90.2 | 31.6 | 18.9 | 80.9 | 22.6 | 50.4 | 22.3 | 89 | – | – | 19.7 to 67.9% | – | – | – | – | –
10 | O=C(c1ccc(Br)cc1)C(Cl)Cl | 96.1 | 73.4 | 16.2 | – | 48.8 | 13.3 | 37.8 | 23.5 | 67.7 | – | inactive | – | – | – | – | – | –
11 | O=C(c1ccccc1C(F)(F)F)C(Cl)Cl | 10.2 | 16.7 | 9 | 3 | 8.3 | – | 12.7 | 8.1 | 2.1 | – | – | inactive | – | – | inactive | – | –
12 | O=C(c1ccc(Cl)cc1Cl)C(Cl)Cl | 99 | 99.8 | 4.4 | 1.8 | 48.4 | 80.2 | 89 | 35.2 | 96.9 | – | – | – | – | – | – | – | –
13 | Cc1cccc(C(=O)C(Cl)Cl)c1 | 96.7 | 96.8 | 65.6 | 14.2 | 91.3 | 42.5 | 79.9 | 33.3 | 97.3 | – | – | – | – | – | – | – | –
14 | O=C(c1ccc([N+](=O)[O-])cc1)C(Cl)Cl | 99.4 | 99.9 | 70.5 | 24.5 | 97.6 | 77.8 | 98.5 | 35 | 99.6 | – | – | – | – | – | – | – | –
15 | O=C(c1cccc([N+](=O)[O-])c1)C(Cl)Cl | 99.9 | 99.9 | 44.2 | 13.4 | 85.9 | 62.2 | 82.1 | 25.5 | 98.5 | – | – | – | – | – | – | – | –
16 | COc1cccc2c1C(=O)c1c(O)c3c(c(O)c1C2=O)C[C@@](O)(C(=O)CO)C[C@@H]3O[C@H]1C[C@H](N)[C@H](O)[C@H](C)O1 [DOXORUBICIN] | 98.6 | 99.6 | 86.7 | 52.3 | 98.9 | 72.4 | 86.9 | 60.5 | 90.6 | – | – | – | – | – | – | – | –
17 | O=C(c1cccc(Br)c1)C(Cl)Cl | 97.4 | 79.6 | 24.7 | 15.6 | 72 | 44.9 | 43.6 | 18.1 | 86.2 | – | – | – | – | – | – | – | –
18 | O=C(c1ccc(I)cc1)C(Cl)Cl | 96.8 | 99.6 | 52.3 | 9.3 | 74.4 | 33.8 | 65.6 | 29.3 | 91.4 | – | – | – | – | – | – | – | –
19 | N#Cc1ccc(C(=O)C(Cl)Cl)cc1 | 99.7 | 96.5 | 15.9 | 8.5 | 61.4 | 54.6 | 65.8 | 11.8 | 99.4 | – | – | – | – | – | – | – | –
20 | O=C(c1ccc(F)c([N+](=O)[O-])c1)C(Cl)Cl | 97.6 | 14.5 | 20.4 | 7 | 51.1 | 6.5 | – | – | 73.3 | – | – | – | inactive | inactive | – | – | –
21 | CCc1cccc(C(=O)C(Cl)Cl)c1 | 96.9 | 98.7 | 25.7 | 22.6 | 63.2 | 28 | 64.1 | 23.7 | 85.9 | – | – | – | – | – | – | – | –
22 | CC(C)c1ccc(C(=O)CCl)cc1[N+](=O)[O-] | 99 | 95.7 | 28.7 | – | 75.6 | 9 | 59.7 | 18.4 | 50.4 | – | inactive | – | – | – | – | – | –
23 | O=C(c1ccc(Br)c([N+](=O)[O-])c1)C(Cl)Cl | 98.9 | 59.1 | 14.1 | 6.5 | 50.5 | 9.1 | – | – | 74.1 | – | – | – | inactive | inactive | – | – | –
24 | CC(C)c1ccc(C(=O)C(Cl)(Cl)Cl)cc1[N+](=O)[O-] | 31.2 | 22.6 | – | – | 12.5 | – | – | – | – | – | inactive | – | inactive | inactive | inactive | inactive | inactive
25 | O=C(c1cccc(C(F)(F)F)c1)C(Cl)Cl | 97.8 | 97.5 | 28.4 | 11 | 77.9 | 45.8 | 65.9 | 24 | 96.6 | – | – | – | – | – | – | – | –
26 | O=C(c1cccc(Cl)c1)C(Cl)Cl | 98.4 | 99.1 | 53.1 | 14.2 | 82.8 | 37 | 76.3 | 24.9 | 95.9 | – | – | – | – | – | – | – | –
27 | O=C(c1ccc(F)cc1F)C(Cl)Cl | 98.7 | 95.3 | 50.1 | 4.8 | 58.5 | 74.3 | 65.5 | 30.8 | 97.5 | – | – | – | – | – | – | – | –
